Source: the NIST ThermoML archive (doi:10.1021/je700179q)
Numbers after ± are expanded uncertainties.

Conditions: Crystal; visual observation

Normal melting temperature: 116.00 ± 1 °C
SMILES: c1ccc2c(c1)Cc1ccccc1-2 [fluorene]
